Source: US11053204B2, “Pyrimidinyloxy benzene derivatives as herbicides” (FMC Corporation, priority 2015, dated 2021)

Columns and labels:
Format in all cases: in vivo
[1] = test system: wheat (Triticum aestivum); assay: Test A postemergence, visual injury rating; conditions: 0 is no effect, 100 is complete control; for Wheat plant response rating: 0 to 100 scale, approximately 10 days
Summary of the method: (§1)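 Pre- and postemergence greenhouse screen. Soil: loam + sand. Spray carrier: solvent mixture, non-phytotoxic, with surfactant. Post timing at 1–2 leaves, height 2–10 cm. Readout: visual injury on a 0–100 scale roughly 10 days after application, untreated plants as reference.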

corn (Zea mays) = assay: Test A postemergence, visual injury rating; conditions: 0 is no effect, 100 is complete control; for Corn plant response rating: 0 to 100 scale, approximately 10 days
Summary of the method: as §1

[2] = test system: galium (catchweed bedstraw, Galium aparine); assay: Test A postemergence, visual injury rating; conditions: 0 is no effect, 100 is complete control; for Galium plant response rating: 0 to 100 scale, approximately 10 days
Summary of the method: as §1

[3] = test system: giant foxtail (Setaria faberii); assay: Test A postemergence, visual injury rating; conditions: 0 is no effect, 100 is complete control; for Foxtail, Giant plant response rating: 0 to 100 scale, approximately 10 days
Summary of the method: as §1

[4] = test system: pigweed (Amaranthus retroflexus); assay: Test A postemergence, visual injury rating; conditions: 0 is no effect, 100 is complete control; for Pigweed plant response rating: 0 to 100 scale, approximately 10 days
Summary of the method: as §1

[5] = test system: Italian ryegrass (Lolium multiflorum); assay: Test A postemergence, visual injury rating; conditions: 0 is no effect, 100 is complete control; for Ryegrass, Italian plant response rating: 0 to 100 scale, approximately 10 days
Summary of the method: as §1

[6] = test system: blackgrass (Alopecurus myosuroides); assay: Test A postemergence, visual injury rating; conditions: 0 is no effect, 100 is complete control; for Blackgrass plant response rating: 0 to 100 scale, approximately 10 days
Summary of the method: as §1

[7] = test system: barnyardgrass (Echinochloa crus-galli); assay: Test A postemergence, visual injury rating; conditions: 0 is no effect, 100 is complete control; for Barnyardgrass plant response rating: 0 to 100 scale, approximately 10 days
Summary of the method: as §1

kochia (Kochia scoparia) [8] = assay: Test A postemergence, visual injury rating; conditions: 0 is no effect, 100 is complete control; for Kochia plant response rating: 0 to 100 scale, approximately 10 days
Summary of the method: as §1

[9] = test system: ragweed (common ragweed, Ambrosia elatior); assay: Test A postemergence, visual injury rating; conditions: 0 is no effect, 100 is complete control; for Ragweed plant response rating: 0 to 100 scale, approximately 10 days
Summary of the method: as §1

[10] = test system: ducksalad (Heteranthera limosa); assay: Test B flooded paddy test, plant response rating; conditions: 250 g ai/ha, Flood, scale of 0 to 100 where 0 is no effect and 100 is complete control, 13 to 15 days
Summary of the method: (§2)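 In-water treatment: compound dosed into 3 cm flood over soil, water level unchanged throughout. Controls run alongside; visual assessment at day 13–15.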

rice (Oryza sativa) = assay: Test B flooded paddy test, plant response rating; conditions: 250 g ai/ha, Flood, scale of 0 to 100 where 0 is no effect and 100 is complete control, 13 to 15 days
Summary of the method: as §2

[11] = test system: barnyardgrass (Echinochloa crus-galli); assay: Test B flooded paddy test, plant response rating; conditions: 250 g ai/ha, Flood, scale of 0 to 100 where 0 is no effect and 100 is complete control, 13 to 15 days
Summary of the method: as §2

[12] = test system: sedge, umbrella (small-flower umbrella sedge, Cyperus difformis); assay: Test B flooded paddy test, plant response rating; conditions: 250 g ai/ha, Flood, scale of 0 to 100 where 0 is no effect and 100 is complete control, 13 to 15 days
Summary of the method: as §2

[13] = test system: giant foxtail (Setaria faberii); assay: Test A preemergence, visual injury rating
Summary of the method: as §1

[14] = test system: pigweed (Amaranthus retroflexus); assay: Test A preemergence, visual injury rating
Summary of the method: as §1

[15] = test system: Italian ryegrass (Lolium multiflorum); assay: Test A preemergence, visual injury rating
Summary of the method: as §1

[16] = test system: barnyardgrass (Echinochloa crus-galli); assay: Test A preemergence, visual injury rating
Summary of the method: as §1

kochia (Kochia scoparia) [17] = assay: Test A preemergence, visual injury rating
Summary of the method: as §1

[18] = test system: ragweed (common ragweed, Ambrosia elatior); assay: Test A preemergence, visual injury rating
Summary of the method: as §1

[19] = 31 g ai/ha, 0 to 100 scale, 0 no effect, 100 complete control
[20] = 125 g ai/ha, 0 to 100 scale (0 no effect, 100 complete control)

Compound | Wheat plant response rating ([1]; 31 g ai/ha) | Corn plant response rating (corn (Zea mays); 31 g ai/ha) | Galium plant response rating ([2]; 31 g ai/ha) | Foxtail, Giant plant response rating ([3]; 31 g ai/ha) | Pigweed plant response rating ([4]; 31 g ai/ha) | Ryegrass, Italian plant response rating ([5]; 31 g ai/ha) | Blackgrass plant response rating ([6]; 31 g ai/ha) | Barnyardgrass plant response rating ([7]; 31 g ai/ha) | Kochia plant response rating (kochia (Kochia scoparia) [8]; 31 g ai/ha) | Ragweed plant response rating ([9]; 31 g ai/ha) | Plant response rating, Foxtail, Giant [13, 19] | Plant response rating, Pigweed [14, 19] | Plant response rating, Ryegrass, Italian [15, 19] | Plant response rating, Barnyardgrass [16, 19] | Plant response rating, Kochia (kochia (Kochia scoparia) [17]; [19]) | Plant response rating, Ragweed [18, 19] | Wheat plant response rating ([1]; 125 g ai/ha) | Pigweed plant response rating ([4]; 125 g ai/ha) | Ryegrass, Italian plant response rating ([5]; 125 g ai/ha) | Kochia plant response rating (kochia (Kochia scoparia) [8]; 125 g ai/ha) | also measured
Cc1ccc(Oc2ncc(Cl)cn2)c(C(=O)OCCC(F)(F)F)c1 [Compound 54] | 0 | 0 | 0 | 0 | 0 | 0 | 0 | 0 | 0 | 0 | 0 | 0 | 0 | 0 | 0 | 0 |  |  |  |  | plant injury at 125 g/ha ([1]; Triticum aestivum, post-emergence, 240 h, 125 g ai/ha, read-out: Wheat plant response rating (0 to 100 scale)): 0%; plant injury at 125 g/ha (corn (Zea mays); Zea mays, post-emergence, 240 h, 125 g ai/ha, read-out: Corn plant response rating (0 to 100 scale)): 0%; pest or weed control at 125 g/ha ([2]; Galium, post-emergence, 240 h, 125 g ai/ha, read-out: Galium plant response rating (0 to 100 scale)): 0%; pest or weed control at 125 g/ha ([3]; Setaria faberi, post-emergence, 240 h, 125 g ai/ha, read-out: Foxtail, Giant plant response rating (0 to 100 scale)): 0%; pest or weed control at 125 g/ha ([4]; Amaranthus retroflexus, post-emergence, 240 h, 125 g ai/ha, read-out: Pigweed plant response rating (0 to 100 scale)): 0%; pest or weed control at 125 g/ha ([5]; Lolium multiflorum, post-emergence, 240 h, 125 g ai/ha, read-out: Ryegrass, Italian plant response rating (0 to 100 scale)): 0%; pest or weed control at 125 g/ha ([6]; Alopecurus myosuroides, post-emergence, 240 h, 125 g ai/ha, read-out: Blackgrass plant response rating (0 to 100 scale)): 0%; pest or weed control at 125 g/ha ([7]; Echinochloa crus-galli, post-emergence, 240 h, 125 g ai/ha, read-out: Barnyardgrass plant response rating (0 to 100 scale)): 0%; pest or weed control at 125 g/ha (kochia (Kochia scoparia) [8]; Bassia scoparia, post-emergence, 240 h, 125 g ai/ha, read-out: Kochia plant response rating (0 to 100 scale)): 0%; pest or weed control at 125 g/ha ([9]; Ambrosia artemisiifolia, post-emergence, 240 h, 125 g ai/ha, read-out: Ragweed plant response rating (0 to 100 scale)): 0%; pest or weed control at 250 g/ha ([10]; Heteranthera limosa, 312 h): 0%; plant injury at 250 g/ha (rice (Oryza sativa); Oryza sativa, 312 h): 0%; pest or weed control at 250 g/ha ([11]; Echinochloa crus-galli, 312 h): 0%; pest or weed control at 250 g/ha ([12]; Cyperus difformis, 312 h): 0%; pest or weed control at 125 g/ha ([13]; Setaria faberi, pre-emergence, 240 h, 125 g ai/ha, 0 to 100 scale (0 no effect, 100 complete control), read-out: Foxtail, Giant plant response rating): 0%; pest or weed control at 125 g/ha ([14]; Amaranthus retroflexus, pre-emergence, 240 h, 125 g ai/ha, 0 to 100 scale (0 no effect, 100 complete control), read-out: Pigweed plant response rating): 0%; pest or weed control at 125 g/ha ([15]; Lolium multiflorum, pre-emergence, 240 h, 125 g ai/ha, 0 to 100 scale (0 no effect, 100 complete control), read-out: Ryegrass, Italian plant response rating): 0%; pest or weed control at 125 g/ha ([16]; Echinochloa crus-galli, pre-emergence, 240 h, 125 g ai/ha, 0 to 100 scale (0 no effect, 100 complete control), read-out: Barnyardgrass plant response rating): 0%; pest or weed control at 125 g/ha (kochia (Kochia scoparia) [17]; Bassia scoparia, pre-emergence, 240 h, 125 g ai/ha, 0 to 100 scale (0 no effect, 100 complete control), read-out: Kochia plant response rating): 0%; pest or weed control at 125 g/ha ([18]; Ambrosia artemisiifolia, pre-emergence, 240 h, 125 g ai/ha, 0 to 100 scale (0 no effect, 100 complete control), read-out: Ragweed plant response rating): 0%
FC(F)(F)CCCCCc1c(Br)cccc1Oc1ncc(Cl)cn1 [Compound 121] | 10 | 10 | 70 | 10 | 80 | 10 | 20 | 20 | 20 | 20 | 30 | 0 | 10 | 0 | 20 | 0 | 10 | 100 | 20 | 80 | Corn plant response rating (corn (Zea mays); 125 g ai/ha): 10; Galium plant response rating ([2]; 125 g ai/ha): 80; Foxtail, Giant plant response rating ([3]; 125 g ai/ha): 70; Blackgrass plant response rating ([6]; 125 g ai/ha): 30; Barnyardgrass plant response rating ([7]; 125 g ai/ha): 40; Ragweed plant response rating ([9]; 125 g ai/ha): 50; Plant response rating, Ducksalad [10]: 0; Plant response rating, Rice (rice (Oryza sativa)): 35; Plant response rating, Barnyardgrass [11]: 50; Plant response rating, Sedge, Umbrella [12]: 70; Plant response rating, Foxtail, Giant [13, 20]: 100; Plant response rating, Pigweed [14, 20]: 0; Plant response rating, Ryegrass, Italian [15, 20]: 0; Plant response rating, Barnyardgrass [16, 20]: 30; Plant response rating, Kochia (kochia (Kochia scoparia) [17]; [20]): 0; Plant response rating, Ragweed [18, 20]: 0
CCCCc1c(C#N)cccc1Oc1ncc(Cl)cn1 [Compound 86] | 30 | 30 | 30 | 10 | 30 | 0 | 0 | 20 | 90 | 0 | 0 | 20 | 0 | 0 | 10 | 0 | 40 | 40 | 20 | 100 | Corn plant response rating (corn (Zea mays); 125 g ai/ha): 30; Galium plant response rating ([2]; 125 g ai/ha): 70; Foxtail, Giant plant response rating ([3]; 125 g ai/ha): 30; Blackgrass plant response rating ([6]; 125 g ai/ha): 20; Barnyardgrass plant response rating ([7]; 125 g ai/ha): 40; Ragweed plant response rating ([9]; 125 g ai/ha): 0; Plant response rating, Ducksalad [10]: 100; Plant response rating, Rice (rice (Oryza sativa)): 20; Plant response rating, Barnyardgrass [11]: 40; Plant response rating, Sedge, Umbrella [12]: 100; Foxtail, Giant plant response rating [13, 20]: 50; Pigweed plant response rating [14, 20]: 100; Ryegrass, Italian plant response rating [15, 20]: 20; Barnyardgrass plant response rating [16, 20]: 90; Kochia plant response rating (kochia (Kochia scoparia) [17]; [20]): 100; Ragweed plant response rating [18, 20]: 0
CC(=NOC(C)C)c1c(F)cccc1Oc1ncc(Cl)cn1 [Compound 76] | 0 | 0 | 0 | 0 | 0 | 0 | 0 | 0 | 0 | 0 | 0 | 0 | 0 | 0 | 0 | 0 | 0 | 30 | 0 | 0 | Corn plant response rating (0 to 100 scale) (corn (Zea mays); 125 g ai/ha): 0; Galium plant response rating (0 to 100 scale) ([2]; 125 g ai/ha): 90; Foxtail, Giant plant response rating (0 to 100 scale) ([3]; 125 g ai/ha): 0; Blackgrass plant response rating (0 to 100 scale) ([6]; 125 g ai/ha): 0; Barnyardgrass plant response rating (0 to 100 scale) ([7]; 125 g ai/ha): 0; Ragweed plant response rating ([9]; 125 g ai/ha): 0; Plant response rating, Ducksalad [10]: 85; Plant response rating, Rice (rice (Oryza sativa)): 10; Plant response rating, Barnyardgrass [11]: 0; Plant response rating, Sedge, Umbrella [12]: 70; Foxtail, Giant plant response rating [13, 20]: 70; Pigweed plant response rating [14, 20]: 50; Ryegrass, Italian plant response rating [15, 20]: 0; Barnyardgrass plant response rating [16, 20]: 70; Kochia plant response rating (kochia (Kochia scoparia) [17]; [20]): 0; Ragweed plant response rating [18, 20]: 0
